Measured values published in US20230226100A1, “CYCLODEXTRIN BASED ANTI-MICROBIAL THERAPY” (University of Southern California, priority 2020, published 2023).

How the values were obtained:
Type in all cases: cell-based
A549 = test: Alamar Blue chemical dye penetration through barrier, A549
Description: (§1) Studies test efficacy barrier to prevent chemical dye penetration. We used a resurazine dye that can penetrate across cellular membranes where it is […] to form a purple color and is quantifiable using fluorescence or visible light. Chemical exposure used Alamar Blue which was incubated for 4 hours. The ability of the barrier formulation to prevent chemical penetration was measured at 570 nm and confirmed using fluorescence intensity (560/590 nm) readings. A concentration dependent response to HPBCD was observed over four hours of incubation. The chemical dye penetration was reduced with increasing percent beta cyclodextrin across all timepoints (FIG. 5).
The ability to block chemical exposure was also conducted in the other cyclodextrins namely hydroxypropyl gamma cyclodextrin (HPGCD), sulfonylbutyl ethyl beta cyclodextrins (SBEBCD), and randomly methylated methyl beta cyclodextrins (CRYSMEB) and incubating over 4 hours. The ability of the barrier formulations to prevent chemical penetration was measured at an absorbance of 570 nm and confirmed using fluorescence intensity (560/590 nm) readings. […] The addition of HEC improved the ability to prevent chemical penetration (Table 2). Although the data is unexpected, it allows for further probe into the effect of these cyclodextrin derivatives on viral particles which may be bigger and more hydrophobic.
(§2) To determine the ability of the candidate nanoscale barrier to prevent chemical penetration, epithelial cells (e.g., HEK293T, A549, Vero-E6 ACE2) were seeded at 1×10^4 cells per well and incubated in DMEM till confluence. Cyclodextrin-based formation candidates were tested at various concentrations from 0 to 20% was added at varying concentrations (% w/v) and incubated for 0.5 h prior to the addition of the Alamar Blue. Alamar Blue is able to penetrate the cell, where viable cells are able to reduce the resazurin-based solution to quantitatively measure level of penetration.

HEK293T = test: Alamar Blue chemical dye penetration through barrier, HEK293T
Description: as §1, §2

Vero-E6 ACE2 = test: Alamar Blue chemical dye penetration through barrier, Vero-E6 ACE2
Description: as §1, §2

[1] = test system: pLV[Exp]-Puro-CMV>EGFP lentivirus; test: EGFP lentivirus infection of HEK293T cells in presence of barrier
Description: To simulate viral infection, we used lentivirus that has green fluorescent protein (GFP) incorporated into its gene. Lentivirus are designed to be highly efficient to transfect epithelial cells such as HEK293T. The effect of HPBCD barrier to present viral infection was evaluated using a concentration escalation study, where HPBCD ranged from 0 to 25% (w/v). In this study, we used a pLV[Exp]-Puro-CMV>EGFP lentivirus to infect HEK293T.
Human muco-ciliary deposition and clearance of exogenous substances occurs in 30 minutes as determined through real time methodology (Thrall et al., Inhalation Toxicology, 2003. 15(6): p. 523-538). Subsequently the EGFP lentivirus was incubated in the presence and absence of the HPBCD barrier for reduced time periods (0.5 h and 2 h) to reflect applicability of a HPBCD nasal spray. After the incubation period, barriers were removed, and cells were washed with 1×PBS before replacement with complete cell culture medium. 24 hours post-incubation at 5% CO2 and 37 degrees C., fluorescence imaging was conducted using the Biotek Cytation 5 imaging device in which 4×GFP images were taken. […] After 30 minutes of incubation with the virus, there is 50% reduction of viral infectivity as measured by fluorescence signal using 5% HPBCD.
To test the ability to prevent viral Epithelial cells (e.g., HEK293T, A549, Vero-E6 ACE2) were used a models chemical and viral infections. Cells were seeded onto 96-well plates at a density of 10^4 cells per well and incubated in DMEM (phenol red free) with 10% FBS and 1% non-essential ammino acids (NEAA). Cells were allowed to attach and grown to confluence to allow for cell polarization prior to experimentation.
Cyclodextrin was added at varying concentrations (% w/v) and incubated for 0.5 h prior to the addition of the virus. Polybrene added at a final concentration of 5 ug/mL to promote viral uptake. Cells were then infected with pLV[Exp]-Puro-CMV>EGFP lentivirus and incubated at 37° C., 5% CO2 for 0.5, 2, or 24 h depending upon the experimental setup. After the incubation time, the beta cyclodextrin solution was removed and cells washed with 1×PBS twice prior to the addition of complete growth medium (DMEM). GFP lentivirus was imaged using the Cytation 5 (Biotek) and relative fluorescence quantified using the Synergy H1 microplate reader (Biotek).

A549 cells = test: Safety of barriers: A549 cell morphology; details: 5% concentrations; incubated 1 h; 10× magnification
Description: During protection of mucocutaneous linings, barriers will be exposed repeatedly due to frequent dosing. A critical criterion for selecting the right cyclodextrin for a nanoformulation barrier usable in this application is the safety of the cyclodextrin type. A549 cells were seeded at 4×10^4 cells per well and grown to confluence. Cyclodextrin-based formation candidates were tested at 5% concentrations and incubated for 1 h prior to the addition. The barrier was then replaced with media for evaluation. Pictures were taken for at least five field views at 10× magnification.

[2] = Table 2, confluent A549, 2.5% cyclodextrin (+ HEC: 0.188% HEC), 2 hr, negative values = increase in fluorescence intensity
[3] = Table 2, confluent A549, 2.5% cyclodextrin (+ HEC: 0.188% HEC), 4 hr, negative values = increase in fluorescence intensity
[4] = Table 2, confluent A549, 5% cyclodextrin (+ HEC: 0.375% HEC), 2 hr, negative values = increase in fluorescence intensity
[5] = Table 2, confluent A549, 5% cyclodextrin (+ HEC: 0.375% HEC), 4 hr, negative values = increase in fluorescence intensity
[6] = Table 2, confluent A549, 10% cyclodextrin (+ HEC: 0.75% HEC), 2 hr, negative values = increase in fluorescence intensity
[7] = Table 2, confluent A549, 10% cyclodextrin (+ HEC: 0.75% HEC), 4 hr, negative values = increase in fluorescence intensity
[8] = confluent A549, incubation over 4 hours
[9] = 2.5% HPBCD (Combination: + 0.188% HEC), 2 hr
[10] = 2.5% HPBCD (Combination: + 0.188% HEC), 4 hr
[11] = 5% HPBCD (Combination: + 0.375% HEC), 2 hr
[12] = 5% HPBCD (Combination: + 0.375% HEC), 4 hr
[13] = 10% HPBCD (Combination: + 0.75% HEC), 2 hr
[14] = 10% HPBCD (Combination: + 0.75% HEC), 4 hr

Molecule: 2-Hydroxypropyl-Gamma-cyclodextrin [HPGCD]
- Percent Reduction Compared to No Barrier Treatment (Mean ± SD) (A549; [2]): −89.9 ± 3.8%
- Percent Reduction Compared to No Barrier Treatment (Mean ± SD) (A549; [3]): −244.5 ± 3.0%
- Percent Reduction Compared to No Barrier Treatment (Mean ± SD) (A549; [4]): −46.7 ± 2.4%
- Percent Reduction Compared to No Barrier Treatment (Mean ± SD) (A549; [5]): −210.66 ± 3.0%
- Percent Reduction Compared to No Barrier Treatment (Mean ± SD) (A549; [6]): −13.1 ± 1.4%
- Percent Reduction Compared to No Barrier Treatment (Mean ± SD) (A549; [7]): −97.0 ± 2.1%
- chemical dye penetration (in words) (A549; [8]): enhanced chemical dye penetration

Molecule: CC(O)COC[C@H]1O[C@@H]2O[C@H]3[C@H](O)[C@@H](O)[C@@H](O[C@H]4[C@H](O)[C@@H](O)[C@@H](O[C@H]5[C@H](O)[C@@H](O)[C@@H](O[C@H]6[C@H](O)[C@@H](O)[C@@H](O[C@H]7[C@H](O)[C@@H](O)[C@@H](O[C@H]8[C@H](O)[C@@H](O)[C@@H](O[C@H]1[C@H](O)[C@H]2O)O[C@@H]8COCC(C)O)O[C@@H]7COCC(C)O)O[C@@H]6COCC(C)O)O[C@@H]5COCC(C)O)O[C@@H]4COCC(C)O)O[C@@H]3COCC(C)O (stereo partly drawn) [HPBCD, (2-Hydroxypropyl)-Beta-Cyclodextrin]
- Percent Reduction Compared to No Barrier Treatment (Mean ± SD) (A549; A549, 2.5% HPBCD (Combination: + 0.188% HEC), 2 hr): 82.5 ± 1.4%
- Percent Reduction Compared to No Barrier Treatment (Mean ± SD) (A549; A549, 2.5% HPBCD (Combination: + 0.188% HEC), 4 hr): 66.9 ± 1.9%
- Percent Reduction Compared to No Barrier Treatment (Mean ± SD) (A549; A549, 5% HPBCD (Combination: + 0.375% HEC), 2 hr): 88.5 ± 0.7%
- Percent Reduction Compared to No Barrier Treatment (Mean ± SD) (A549; A549, 5% HPBCD (Combination: + 0.375% HEC), 4 hr): 81.5 ± 0.7%
- Percent Reduction Compared to No Barrier Treatment (Mean ± SD) (A549; A549, 10% HPBCD (Combination: + 0.75% HEC), 2 hr): 89.3 ± 0.6%
- Percent Reduction Compared to No Barrier Treatment (Mean ± SD) (A549; A549, 10% HPBCD (Combination: + 0.75% HEC), 4 hr): 82.9 ± 0.9%
- Percent Reduction Compared to No Barrier Treatment (Mean ± SD) (HEK293T; [9]): 70.4 ± 1.7%
- Percent Reduction Compared to No Barrier Treatment (Mean ± SD) (HEK293T; [10]): 71.7 ± 0.8%
- Percent Reduction Compared to No Barrier Treatment (Mean ± SD) (HEK293T; [11]): 77.5 ± 0.6%
- Percent Reduction Compared to No Barrier Treatment (Mean ± SD) (HEK293T; [12]): 80.4 ± 0.8%
- Percent Reduction Compared to No Barrier Treatment (Mean ± SD) (HEK293T; [13]): 79.8 ± 0.6%
- Percent Reduction Compared to No Barrier Treatment (Mean ± SD) (HEK293T; [14]): 84.3 ± 0.6%
- chemical dye (Alamar blue) penetration, relative fluorescence intensity vs no treatment (HEK293T; FIG. 5, P<0.01): statistically significant reduction
- Percent Reduction Compared to No Barrier Treatment (Mean ± SD) (Vero-E6 ACE2; [9]): 62.8 ± 2.0%
- Percent Reduction Compared to No Barrier Treatment (Mean ± SD) (Vero-E6 ACE2; [10]): 67.1 ± 1.8%
- Percent Reduction Compared to No Barrier Treatment (Mean ± SD) (Vero-E6 ACE2; [11]): 70.2 ± 1.2%
- Percent Reduction Compared to No Barrier Treatment (Mean ± SD) (Vero-E6 ACE2; [12]): 76.9 ± 0.6%
- Percent Reduction Compared to No Barrier Treatment (Mean ± SD) (Vero-E6 ACE2; [13]): 73.5 ± 1.2%
- Percent Reduction Compared to No Barrier Treatment (Mean ± SD) (Vero-E6 ACE2; [14]): 82.5 ± 0.9%
- viral infectivity (GFP expressing lentiviruses) ([1]; 5-20% HPBCD alone): able to reduce viral infectivity
- signs of lentivirus infection ([1]; 20% HPBCD alone as a barrier): No signs of lentivirus infection
- infectivity in HEK cells ([1]; 0.5 h and 2 h incubation, p<0.05 and p<0.01 respectively): concentration dependent decrease in infectivity
- reduction of viral infectivity as measured by fluorescence signal ([1]; HEK293T, 5% HPBCD, 30 minutes of incubation with the virus): 50%
- lentivirus infectivity ([1]; HEK293T, MOI of 5, 6 hours, 10% and 20% HPBCD, p≤0.01): reduced lentivirus infectivity
- A549 cell morphology / cell death (A549 cells): No significant changes in cellular morphology or cell death

Molecule: crystalline methylated beta-cyclodextrin [CRYSMEB]
- chemical dye penetration (in words) (A549; A549, across all timepoints): reduced in a dose-dependent manner
- Percent Reduction Compared to No Barrier Treatment (Mean ± SD) (A549; [2]): 36.0 ± 2.3%
- Percent Reduction Compared to No Barrier Treatment (Mean ± SD) (A549; [3]): 35.3 ± 1.9%
- Percent Reduction Compared to No Barrier Treatment (Mean ± SD) (A549; [4]): 47.9 ± 0.8%
- Percent Reduction Compared to No Barrier Treatment (Mean ± SD) (A549; [5]): 52.3 ± 2.6%
- Percent Reduction Compared to No Barrier Treatment (Mean ± SD) (A549; [6]): 58.5 ± 1.4%
- Percent Reduction Compared to No Barrier Treatment (Mean ± SD) (A549; [7]): 67.6 ± 2.3%
- A549 cell morphology / cell death (A549 cells): cellular death and cellular morphological changes

Molecule: sulfobutyl ether-beta-cyclodextrin [SBEBCD]
- Percent Reduction Compared to No Barrier Treatment (Mean ± SD) (A549; [2]): 10.7 ± 2.57%
- Percent Reduction Compared to No Barrier Treatment (Mean ± SD) (A549; [3]): −244.5 ± 3.0%
- Percent Reduction Compared to No Barrier Treatment (Mean ± SD) (A549; [4]): 39.5 ± 1.2%
- Percent Reduction Compared to No Barrier Treatment (Mean ± SD) (A549; [5]): −218.2 ± 13.2%
- Percent Reduction Compared to No Barrier Treatment (Mean ± SD) (A549; [6]): 51.3 ± 2.4%
- Percent Reduction Compared to No Barrier Treatment (Mean ± SD) (A549; [7]): −108.2 ± 19.5%
- chemical dye penetration (in words) (A549; confluent A549, 2 h timepoint): dose-dependent reduction in chemical dye penetration
- chemical dye penetration (in words) (A549; [8]): enhanced chemical dye penetration
